Results: patent US6822003B2, “Aldose reductase inhibitor and process for preparation thereof” (Council of Scientific and Industrial Research, priority 2001, dated 2004)

Key:
[1] = system: diabetic rats; conditions: via an intragastric tube, compared with ONO-2235; cited from earlier work
[2] = solubility in solvents; type: physicochemical
[3] = target: rat lens aldose reductase (Rattus norvegicus, UniProt P07943); assay: rat lens aldose reductase inhibition, decrease in absorbence at 340 nm; type: biochemical; conditions: DL-glyceraldehyde substrate, 25° C., pH 7.0; read-out: IC50 against rat lens aldose reductase inhibitory activity
Protocol: Lens were collected from rat eyes and homogenized with sodium, potassium phosphate buffer (0.135 M, pH 7.0) containing 0.5 mM of phenyl methyl sulphonyl fluoride and 10 mM of β-mercaptoethanol. The homogenate was centrifuged at 10,000 r.p.m for 30 minutes at 4° C. The supernatant was taken as enzyme source. Enzyme reaction was carried out at 25° C. in a quartz cuvette with a 1 cm light path. The assay mixture contained 100 μL of nicotinamide adenine dinucleotide phosphate tetra sodium salt (from a stock solution of 9.6 mM), 100 μL of DL-glyceraldehyde (from a stock solution of 250 mM), 10 μL of inhibitor dissolved in dimethyl sulphoxide, sodium-potassium-phosphate buffer (0.135 M, pH 7.0) to make up the total volume to 3 mL and the reaction was initiated by the addition of 200 μL of enzyme solution. The enzyme reaction was monitored by the decrease in absorbence at 340 nm and compared with enzyme reaction without inhibitor.

Row | solubility in chloroform and hexane ([2]; chloroform and hexane) | solubility in methanol, ethyl acetate, dimethyl sulphoxide, diethyl ether, sodium bicarbonate, sodium carbonate and sodium hydroxide solution ([2]; organic solvents and alkaline solutions) | solubility in water ([2]; water) | IC50 [3] | SMILES | suppression of sorbitol accumulation in the red blood cells, the sciatic nerve, and the lens [1]
1 | – | – | – | – | O=C(/C=C/c1ccc(O)cc1)c1ccc(O)cc1O [Isoliquiritigenin, isoliquiritigenin] | suppressed sorbitol accumulation in the red blood cells, the sciatic nerve, and the lens as effectively as ONO-2235
2 | slightly soluble | soluble | insoluble | 26.2 µM | CCCCCCOc1cc(O)cc2c1C(=O)C(O)=CC2=O [Compound 1, 2, 6, dihydroxy, 8, hexoxy, 1, 4, naphthaquinone] | –
